# Measured values: patent publication US20240058335A1, “METHODS FOR TREATMENT OF CANCER USING ABL INHIBITORS AND DRUGS TARGETING THE MEVALONATE PATHWAY” (Duke University, priority 2021, published 2024)
# Legend:
# PC9 cells = experiment: Pooled metabolically focused CRISPR/Cas9 loss-of-function screen with GNF5 (gene-level three scores); assay type: cell-based, human
# Protocol: POOLED CRISPR SCREEN. PC9 cells were seeded into 12, six-well plates at 0.25e6 cells/well. A separate plate was also prepared for no puromycin and puromycin controls of non-transduced cells. Cells were transduced at a MOI of 0.2. 24 hours after viral transduction, cells were replated into puromycin-containing media. A sample was collected at 48 hours of puromycin exposure to confirm library coverage in the transduced population. Transduced cells were expanded in puromycin for a total of 10 days prior to drug introduction, at which point the transduced cell population was split into vehicle (DMSO) and GNF5 treatment conditions and maintained for up to two weeks. Cells were treated with 2 μM GNF5 which corresponded to 20-30% loss in cell viability following a 3-day dose response assay. Cells were counted, replated, and drug replenished every day. At any given point during the screen, each replicate was represented by a minimum of 12E6 cells, sufficient to provide 1000×coverage of the library (1000 cells per unique sgRNA). Samples of 25E6 cells were collected upon screen initiation, termination, and at weekly intervals. Following completion of the screens, DNA was extracted (DNeasy Blood & Tissue Kit, QIAGEN) and prepared for sequencing as previously described.
# SCREEN ANALYSIS. Deep sequencing was performed on an Illumina Nextseq platform (75 bp, paired-ended) to identify differences in library composition. All sequencing was performed by the Duke University genome sequencing facility. Barcoded reads were mapped to the guide RNA library using bcSeq to obtain the counts for each guide RNA. Determinations of genetic essentiality and drug sensitization/resistance were made by evaluating differential guide compositions between the initial population and subsequent drug-treated and vehicle-treated cells populations. Briefly, the fractional representation (FR) for the guide reads within a sample was normalized to the total reads attributed to that sample. A direct comparison between two samples was represented by the quotient of the respective FRs in the log 2 scale, which is termed the depletion metric (DM). The guide-level DMs for each gene were then collapsed to gene-level scores by taking the average of the top three most depleted constructs resulting in a biased analysis focused on depleted genes. Genes represented by fewer than 5 guides per condition were excluded from analysis. In the 2,322-gene library, 7 genes (representing 0.3% of the total library) were excluded. Genetic essentiality was calculated by considering the depletion/enrichment of the vehicle-treated (DSMO) population over time (DMSO final/DSMO initial). Drug sensitization/resistance was calculated by considering the depletion/enrichment of the drug-treated population relative to the vehicle-treated population (Drug final/DMSO final). All depletion/enrichment effects are reported as log 2 ratios. All analyses were conducted using the R statistical environment (https://www.r-project.org/) along with extension packages from the comprehensive R archive network (CRAN; available at cran.r-project.org/) and the Bioconductor project. The analyses were carried out with adherence to the principles of reproducible analysis using the knitr package for generation of dynamic reports and gitlab for source code management. The code for replicating the statistical analysis was made accessible through a public source code repository, available at gitlab.oit.duke.edu/dcibioinformatics/pubs/pendergast-crispr-barcode.
# Because many metabolic genes are known to be essential to cellular viability, determining the effect of cell-essential genetic loss on apoptosis is difficult. […] The remaining cell-essential genes are captured by the screen.
# Metabolically focused CRISPR/Cas9 loss-of-function screen identifies HMGCR inhibition with statin therapy as an apoptotic sensitizer in lung cancer cells. […]
# PC9 BrM3 cells = experiment: Cell viability dose-response assay (CellTiter-Glo), IC50 calculation; assay type: cell-based, human; conditions: PC9 BrM3; dose-response assay; read-out: Calculated IC50
smiles,measurement,setting,value
O=C(NCCO)c1cccc(-c2cc(Nc3ccc(OC(F)(F)F)cc3)ncn2)c1 [GNF5],log2 TS,PC9 cells; CCBL1 knockout,−0.2362
same,log2 TS,PC9 cells; CCBL2 knockout,−0.00176
same,log2 TS,PC9 cells; CCDC102B knockout,−0.3186
same,log2 TS,PC9 cells; CCDC155 knockout,−0.128
same,log2 TS,PC9 cells; CDA knockout,−0.3678
same,log2 TS,PC9 cells; CDADC1 knockout,−0.189
same,log2 TS,PC9 cells; CDC14A knockout,−0.5269
same,log2 TS,PC9 cells; CDC14B knockout,−0.3312
same,log2 TS,PC9 cells; CDC25A knockout,−0.3125
same,log2 TS,PC9 cells; CDC25B knockout,−0.5769
same,log2 TS,PC9 cells; CDC25C knockout,0.02041
same,log2 TS,PC9 cells; CDKN3 knockout,−0.2304
same,log2 TS,PC9 cells; CDO1 knockout,−0.3626
same,log2 TS,PC9 cells; CECR1 knockout,0.1378
same,log2 TS,PC9 cells; CEL knockout,−0.2626
same,log2 TS,PC9 cells; CERK knockout,−0.2067
same,log2 TS,PC9 cells; CERKL knockout,−0.4755
same,log2 TS,PC9 cells; CERS1 knockout,−0.5675
same,log2 TS,PC9 cells; CERS2 knockout,−0.1757
same,log2 TS,PC9 cells; CERS3 knockout,−0.3966
same,log2 TS,PC9 cells; CERS4 knockout,−0.0552
same,log2 TS,PC9 cells; CERS5 knockout,−0.09954
same,log2 TS,PC9 cells; CERS6 knockout,−0.2316
same,log2 TS,PC9 cells; CES1 knockout,−0.1103
same,log2 TS,PC9 cells; CES2 knockout,−0.115
same,log2 TS,PC9 cells; CES3 knockout,−0.1816
same,log2 TS,PC9 cells; CFTR knockout,−0.552
same,log2 TS,PC9 cells; CHAT knockout,0.03889
same,log2 TS,PC9 cells; CHI3L1 knockout,−0.08904
same,log2 TS,PC9 cells; CHI3L2 knockout,−0.203
same,log2 TS,PC9 cells; CHIA knockout,−0.1854
same,log2 TS,PC9 cells; CHID1 knockout,−0.2305
same,log2 TS,PC9 cells; CHIT1 knockout,−0.1013
same,log2 TS,PC9 cells; CHKA knockout,0.1899
same,log2 TS,PC9 cells; CHPF knockout,−0.1196
same,log2 TS,PC9 cells; CHPT1 knockout,0.05664
same,log2 TS,PC9 cells; CHRNA1 knockout,−0.2091
same,log2 TS,PC9 cells; CHRNA2 knockout,−0.09543
same,log2 TS,PC9 cells; CHRNA3 knockout,0.193
same,log2 TS,PC9 cells; CHRNA4 knockout,−0.2119
same,log2 TS,PC9 cells; CHRNA5 knockout,−0.1927
same,log2 TS,PC9 cells; CHRNA6 knockout,−0.00193
same,log2 TS,PC9 cells; CHRNA7 knockout,−0.4166
same,log2 TS,PC9 cells; CHRNA9 knockout,−0.2542
same,log2 TS,PC9 cells; CHRNA10 knockout,−0.09517
same,log2 TS,PC9 cells; CHRNB1 knockout,−0.07599
same,log2 TS,PC9 cells; CHRNB2 knockout,−0.2245
same,log2 TS,PC9 cells; CHRNB3 knockout,−0.3189
same,log2 TS,PC9 cells; CHRNB4 knockout,−0.4141
same,log2 TS,PC9 cells; CHRND knockout,−0.5686
same,log2 TS,PC9 cells; CHRNE knockout,−0.137
same,log2 TS,PC9 cells; CHRNG knockout,0.05205
same,log2 TS,PC9 cells; CHST1 knockout,−0.0245
same,log2 TS,PC9 cells; CHST6 knockout,−0.3091
same,log2 TS,PC9 cells; CKB knockout,−0.247
same,log2 TS,PC9 cells; CKM knockout,−0.3126
same,log2 TS,PC9 cells; CKMT2 knockout,−0.2525
same,log2 TS,PC9 cells; CLC knockout,−0.314
same,log2 TS,PC9 cells; CLCA1 knockout,−0.142
same,log2 TS,PC9 cells; CLCA2 knockout,−0.4614
same,log2 TS,PC9 cells; CLCA4 knockout,0.05396
same,log2 TS,PC9 cells; CLCN1 knockout,−0.1326
same,log2 TS,PC9 cells; CLCN2 knockout,−0.1747
same,log2 TS,PC9 cells; CLCN3 knockout,−0.494
same,log2 TS,PC9 cells; CLCN4 knockout,0.0428
same,log2 TS,PC9 cells; CLCN5 knockout,−0.4161
same,log2 TS,PC9 cells; CLCN6 knockout,−0.3635
same,log2 TS,PC9 cells; CLCN7 knockout,−0.1319
same,log2 TS,PC9 cells; CLCNKA knockout,−0.1822
same,log2 TS,PC9 cells; CLCNKB knockout,−0.3352
same,log2 TS,PC9 cells; CLIC1 knockout,−0.09123
same,log2 TS,PC9 cells; CLIC2 knockout,−0.1159
same,log2 TS,PC9 cells; CLIC3 knockout,0.07472
same,log2 TS,PC9 cells; CLIC4 knockout,−0.06827
same,log2 TS,PC9 cells; CLIC5 knockout,−0.3935
same,log2 TS,PC9 cells; CLIC6 knockout,−0.02678
same,log2 TS,PC9 cells; CLYBL knockout,0.05734
same,log2 TS,PC9 cells; CMAS knockout,−0.3056
same,log2 TS,PC9 cells; CMPK1 knockout,−0.1483
same,log2 TS,PC9 cells; CNDP1 knockout,−0.1314
same,log2 TS,PC9 cells; CNDP2 knockout,−0.1743
same,log2 TS,PC9 cells; CNGA1 knockout,−0.1817
same,log2 TS,PC9 cells; CNGA2 knockout,−0.3543
same,log2 TS,PC9 cells; CNGA3 knockout,0.05484
same,log2 TS,PC9 cells; CNGA4 knockout,−0.3821
same,log2 TS,PC9 cells; CNGB1 knockout,−0.4165
same,log2 TS,PC9 cells; CNGB3 knockout,−0.1968
same,log2 TS,PC9 cells; COA5 knockout,−0.2719
same,log2 TS,PC9 cells; COASY knockout,0.06804
same,log2 TS,PC9 cells; COMT knockout,−0.2352
same,log2 TS,PC9 cells; COMTD1 knockout,−0.123
same,log2 TS,PC9 cells; COQ3 knockout,−0.1115
same,log2 TS,PC9 cells; COQ5 knockout,−0.3619
same,log2 TS,PC9 cells; COQ6 knockout,−0.1357
same,log2 TS,PC9 cells; COQ9 knockout,0.009879
same,log2 TS,PC9 cells; COX10 knockout,−0.3233
same,log2 TS,PC9 cells; COX11 knockout,−0.3148
same,log2 TS,PC9 cells; COX15 knockout,−0.6246
same,log2 TS,PC9 cells; COX17 knockout,−0.66
same,log2 TS,PC9 cells; COX20 knockout,−0.2164
same,IC50,PC9 BrM3 cells,10 µM
